Measured values taken from US20200306255A1, “COMPOSITIONS AND METHODS FOR TREATING NIEMANN PICK C DISEASE” (AI Therapeutics, Inc., priority 2016, published 2020).

Assays:
[1] = plasma protein binding, rat; type: in vitro ADME
Method: (§1) In embodiments, the apilimod compound for use in the compositions and methods of the invention is the free base or dimesylate salt form, MW 610.7 (dimesylate salt); tPSA 83.1; pKa 5.39 (±0.03), 4.54 (±0.27); HBD 1. […] In embodiments, the apilimod compound for use in the compositions and methods of the invention is an active metabolite of apilimod. Six primary metabolites were identified in rat and human microsomal and hepatocyte stability studies. […] Tmax generally occurred within 1 or 2 hours after the oral dose, consistent with the […] of this compound from the circulation. […] The primary metabolites are short-lived in circulation. Both apilimod free base and the dimesylate salt are highly bound (>99%) to rat, dog and human plasma proteins.

[2] = tested on: osteoclast formation; settings: in vitro assay; from WO 2005/000404; read-out: inhibitory activity against osteoclast formation, IC50; cited from earlier work
[3] = target: CYP3A4 (Homo sapiens, UniProt P08684); assay: reaction phenotyping studies, CYP3A4; type: in vitro ADME
Sequence of CYP3A4 (P08684 whole entry): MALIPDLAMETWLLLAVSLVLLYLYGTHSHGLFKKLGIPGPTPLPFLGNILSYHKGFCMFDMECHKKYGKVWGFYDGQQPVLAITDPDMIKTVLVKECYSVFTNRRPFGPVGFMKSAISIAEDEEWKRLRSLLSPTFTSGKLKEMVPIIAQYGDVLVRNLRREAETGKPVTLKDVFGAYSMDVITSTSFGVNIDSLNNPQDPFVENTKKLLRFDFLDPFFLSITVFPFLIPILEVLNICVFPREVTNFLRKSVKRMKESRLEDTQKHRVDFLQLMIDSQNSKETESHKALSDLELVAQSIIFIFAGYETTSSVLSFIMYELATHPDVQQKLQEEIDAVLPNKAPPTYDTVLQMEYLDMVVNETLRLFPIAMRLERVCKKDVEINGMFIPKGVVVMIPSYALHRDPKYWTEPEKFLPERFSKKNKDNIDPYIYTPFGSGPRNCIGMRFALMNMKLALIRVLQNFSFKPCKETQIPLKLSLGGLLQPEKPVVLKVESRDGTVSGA
Method: as §1

[4] = plasma protein binding, dog; type: in vitro ADME; settings: read-out: bound to plasma proteins
Method: as §1

[5] = plasma protein binding, human; type: in vitro ADME; settings: read-out: bound to plasma proteins
Method: as §1

[6] = tested on: NPC1 fibroblasts; assay: HexB release lysosome exocytosis assay; type: cell-based, human; settings: 24 hours treatment; FIG. 3
Method: NPC1 mutant patient skin fibroblasts have been used as a robust cellular model of NPC1 disease (Chen 2010, Xu M et al 2012, Xu M et al 2014) and these cells display a number of NPC-related defects including intracellular accumulation of cholesterol other lipids.
FIG. 3: the rate of lysosome exocytosis can be monitored by the measurement of the release of lysosomal proteins such as Hexosaminidase Subunit Beta(HexB). In FIG. 3, NPC1 fibroblasts were treated with apilimod for 24 hours, the HexB release lysosome exocytosis assay was performed as previously described (Xu et al 2012). The rate of HexB release from NPC1 was increased by apilimod treatment providing evidence for an increased rate of lysosome exocytosis likely leading to cholesterol lowering in NPC1 cells.
Shown in the figure are fluorescence microscopy images of the NPC1 cells treated with 0, 78, 156, and 625 nM apilimod. […] In FIG. 3, apilimod treatment of NPC1 fibroblasts can enhance the rate of lysosome exocytosis as one of the mechanisms for cells to clear lysosome storage of cholesterol and lipid accumulations in NPC.

fraction unbound [1]: < 0.01 | contribution of CYP3A4 to metabolism [3]: contribute to metabolism | fraction unbound [4]: < 0.01 | fraction unbound [5]: < 0.01
SMILES: Cc1cccc(/C=N/Nc2cc(N3CCOCC3)nc(OCCc3ccccn3)n2)c1 [apilimod]
IC50 [2]: 15 nM | rate of HexB release (lysosome exocytosis) [6]: increased
